Key:
D(3) dopamine receptor = D(3) dopamine receptor (Rattus norvegicus, UniProt P19020); assay: biochemical
[1] = target: T1, 5-hydroxytryptamine receptor 2C (Rattus norvegicus, UniProt P08909); assay: biochemical
T1 sequence (P08909 whole entry): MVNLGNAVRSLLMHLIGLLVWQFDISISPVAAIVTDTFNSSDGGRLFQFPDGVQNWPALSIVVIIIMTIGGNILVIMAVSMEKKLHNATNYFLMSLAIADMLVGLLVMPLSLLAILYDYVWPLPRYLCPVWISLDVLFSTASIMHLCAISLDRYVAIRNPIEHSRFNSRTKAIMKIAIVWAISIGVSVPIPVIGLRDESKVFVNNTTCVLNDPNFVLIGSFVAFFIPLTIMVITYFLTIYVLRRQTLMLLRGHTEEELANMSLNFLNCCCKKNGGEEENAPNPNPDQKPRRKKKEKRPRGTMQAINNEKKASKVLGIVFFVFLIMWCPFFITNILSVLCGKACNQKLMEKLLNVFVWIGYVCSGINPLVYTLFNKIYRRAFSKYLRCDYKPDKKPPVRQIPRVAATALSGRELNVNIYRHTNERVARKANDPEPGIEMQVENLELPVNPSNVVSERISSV
Description: Displacement of [3H]mesulergine from 5HT2C receptor in rat cerebral cortex after 15 mins by liquid scintillation counting analysis

[2] = target: T2, 5-hydroxytryptamine receptor 1A (Rattus norvegicus, UniProt P19327); assay: biochemical
T2 sequence (P19327 whole entry): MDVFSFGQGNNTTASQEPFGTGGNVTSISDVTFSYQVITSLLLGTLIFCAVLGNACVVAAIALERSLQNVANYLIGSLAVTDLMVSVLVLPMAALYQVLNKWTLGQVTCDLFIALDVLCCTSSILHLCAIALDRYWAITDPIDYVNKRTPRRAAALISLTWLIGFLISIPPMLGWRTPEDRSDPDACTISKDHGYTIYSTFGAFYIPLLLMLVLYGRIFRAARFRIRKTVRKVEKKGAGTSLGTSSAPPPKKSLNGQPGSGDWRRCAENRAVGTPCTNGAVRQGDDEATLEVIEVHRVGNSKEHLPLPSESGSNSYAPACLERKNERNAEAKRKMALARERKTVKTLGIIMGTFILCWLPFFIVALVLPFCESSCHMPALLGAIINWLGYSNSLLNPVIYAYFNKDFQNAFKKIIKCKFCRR
Description: Displacement of [3H]8-OH-DPAT from 5HT1A receptor in rat cerebral cortex after 30 mins by liquid scintillation counting analysis

D(2) dopamine receptor = D(2) dopamine receptor (Rattus norvegicus, UniProt P61169)
D(2) dopamine receptor, sequence (P61169 whole entry): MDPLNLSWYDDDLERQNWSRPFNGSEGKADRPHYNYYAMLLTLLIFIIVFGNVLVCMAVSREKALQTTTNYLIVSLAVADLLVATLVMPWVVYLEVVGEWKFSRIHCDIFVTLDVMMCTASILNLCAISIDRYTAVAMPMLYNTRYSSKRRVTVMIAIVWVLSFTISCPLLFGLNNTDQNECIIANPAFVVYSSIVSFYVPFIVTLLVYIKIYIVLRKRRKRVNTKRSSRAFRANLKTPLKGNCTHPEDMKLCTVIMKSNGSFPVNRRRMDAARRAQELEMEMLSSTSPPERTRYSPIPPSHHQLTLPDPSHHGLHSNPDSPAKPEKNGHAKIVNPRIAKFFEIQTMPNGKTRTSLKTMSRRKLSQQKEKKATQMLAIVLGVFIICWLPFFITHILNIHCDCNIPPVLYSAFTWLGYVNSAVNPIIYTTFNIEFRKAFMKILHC

Histamine H1 receptor = Histamine H1 receptor (Cavia porcellus, UniProt P31389); assay: Displacement of [3H]mepyramine from histamine H1 receptor in guinea pig cerebellum after 60 mins by liquid scintillation counting analysis
Histamine H1 receptor, sequence (P31389 whole entry): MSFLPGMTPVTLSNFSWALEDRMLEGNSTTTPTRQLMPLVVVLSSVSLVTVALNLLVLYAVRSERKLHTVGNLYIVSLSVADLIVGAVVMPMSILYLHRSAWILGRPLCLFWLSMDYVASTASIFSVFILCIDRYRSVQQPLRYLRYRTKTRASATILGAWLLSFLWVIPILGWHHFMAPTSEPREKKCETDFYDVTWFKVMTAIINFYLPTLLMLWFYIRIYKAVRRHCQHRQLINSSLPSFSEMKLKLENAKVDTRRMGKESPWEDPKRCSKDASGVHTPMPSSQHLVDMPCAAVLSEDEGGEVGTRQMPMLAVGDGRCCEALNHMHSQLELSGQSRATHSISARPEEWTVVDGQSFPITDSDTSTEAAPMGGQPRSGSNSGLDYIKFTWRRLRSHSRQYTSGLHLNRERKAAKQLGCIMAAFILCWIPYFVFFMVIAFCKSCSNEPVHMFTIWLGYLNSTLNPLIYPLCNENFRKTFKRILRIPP

[3] = target: T3, Adrenergic receptor alpha-1 (Rattus norvegicus, UniProt P15823+P23944+P43140)
T3 sequence (P15823 whole entry): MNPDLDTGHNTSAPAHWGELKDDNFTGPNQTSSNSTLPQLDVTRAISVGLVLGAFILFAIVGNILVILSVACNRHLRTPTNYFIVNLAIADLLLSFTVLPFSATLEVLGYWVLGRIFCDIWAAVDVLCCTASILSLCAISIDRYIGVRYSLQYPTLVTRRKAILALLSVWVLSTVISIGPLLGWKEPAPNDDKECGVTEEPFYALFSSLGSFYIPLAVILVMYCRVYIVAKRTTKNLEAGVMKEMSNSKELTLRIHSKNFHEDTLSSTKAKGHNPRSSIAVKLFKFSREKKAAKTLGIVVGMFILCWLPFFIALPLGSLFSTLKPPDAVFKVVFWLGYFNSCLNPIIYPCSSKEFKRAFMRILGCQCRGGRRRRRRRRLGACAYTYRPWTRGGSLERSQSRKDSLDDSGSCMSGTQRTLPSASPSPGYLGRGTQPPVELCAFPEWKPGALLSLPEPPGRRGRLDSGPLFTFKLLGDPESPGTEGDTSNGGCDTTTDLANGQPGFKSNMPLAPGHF
T3 sequence (P23944 whole entry): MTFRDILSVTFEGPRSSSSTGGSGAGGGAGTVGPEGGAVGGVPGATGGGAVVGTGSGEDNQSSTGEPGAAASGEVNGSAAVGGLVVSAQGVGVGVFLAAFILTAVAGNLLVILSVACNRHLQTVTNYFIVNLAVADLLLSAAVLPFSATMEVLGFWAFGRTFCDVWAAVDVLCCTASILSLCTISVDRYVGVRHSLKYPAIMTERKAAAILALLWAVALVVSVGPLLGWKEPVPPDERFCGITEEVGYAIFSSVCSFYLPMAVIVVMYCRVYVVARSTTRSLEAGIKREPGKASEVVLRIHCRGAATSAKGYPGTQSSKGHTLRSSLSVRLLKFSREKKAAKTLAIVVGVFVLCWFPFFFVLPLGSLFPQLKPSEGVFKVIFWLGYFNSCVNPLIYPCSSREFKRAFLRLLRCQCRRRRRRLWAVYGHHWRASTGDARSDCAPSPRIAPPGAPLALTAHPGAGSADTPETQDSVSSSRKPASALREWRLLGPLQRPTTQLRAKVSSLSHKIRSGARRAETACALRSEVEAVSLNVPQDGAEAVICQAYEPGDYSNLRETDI
T3 sequence (P43140 whole entry): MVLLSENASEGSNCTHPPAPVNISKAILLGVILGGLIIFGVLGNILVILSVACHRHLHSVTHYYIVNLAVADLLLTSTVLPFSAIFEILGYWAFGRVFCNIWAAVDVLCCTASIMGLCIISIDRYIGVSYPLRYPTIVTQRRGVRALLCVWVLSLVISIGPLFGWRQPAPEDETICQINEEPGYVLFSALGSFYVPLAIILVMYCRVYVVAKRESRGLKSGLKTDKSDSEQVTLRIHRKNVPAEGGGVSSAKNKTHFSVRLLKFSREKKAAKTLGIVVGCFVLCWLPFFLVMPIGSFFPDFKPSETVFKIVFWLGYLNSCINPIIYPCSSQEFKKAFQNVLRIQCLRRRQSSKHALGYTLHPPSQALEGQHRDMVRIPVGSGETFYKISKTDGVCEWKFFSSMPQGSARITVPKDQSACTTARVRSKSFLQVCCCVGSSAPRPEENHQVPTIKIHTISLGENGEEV
Description: Displacement of [3H]prazosin from alpha-1 adrenergic receptor in rat cerebral cortex after 60 mins by liquid scintillation counting analysis

D(3) dopamine receptor, sequence (P19020 whole entry): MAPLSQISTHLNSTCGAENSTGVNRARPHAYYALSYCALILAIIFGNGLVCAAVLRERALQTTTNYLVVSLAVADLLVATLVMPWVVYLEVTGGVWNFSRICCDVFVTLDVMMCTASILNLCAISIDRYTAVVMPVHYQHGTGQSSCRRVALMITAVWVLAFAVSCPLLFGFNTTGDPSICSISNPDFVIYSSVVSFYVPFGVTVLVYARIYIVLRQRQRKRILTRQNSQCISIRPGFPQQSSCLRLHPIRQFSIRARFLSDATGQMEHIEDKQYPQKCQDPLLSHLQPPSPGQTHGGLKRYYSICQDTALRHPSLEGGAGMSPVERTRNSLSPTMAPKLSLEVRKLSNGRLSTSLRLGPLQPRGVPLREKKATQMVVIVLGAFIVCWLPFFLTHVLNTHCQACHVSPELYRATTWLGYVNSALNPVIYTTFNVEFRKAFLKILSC

Row | Structure (SMILES) | Ki (D(3) dopamine receptor) | Ki [1] | Ki [2] | Ki (D(2) dopamine receptor) | Ki (Histamine H1 receptor) | Ki [3]
1 | Cc1c(C)c2ccc(OCCCCN3CCC(c4noc5cc(F)ccc45)CC3)cc2oc1=O | 30.6 nM | 389 nM | 16.7 nM | 4 nM | 550 nM | 139.2 nM
2 | Cc1cc(=O)oc2cc(OCCCCN3CCC(c4noc5cc(F)ccc45)CC3)ccc12 | 71.3 nM | 11.9 nM | 3.5 nM | 4.9 nM | 19.6 nM | 15.8 nM
3 | Cc1cc(=O)oc2c(Cl)c(OCCCCN3CCC(c4noc5cc(F)ccc45)CC3)ccc12 | 4.3 nM | 1700 nM | 3.3 nM | 2.6 nM | 1130 nM | 2569.2 nM
4 | O=c1cc(-c2ccccc2)c2ccc(OCCCCN3CCC(c4noc5cc(F)ccc45)CC3)cc2o1 | 72.7 nM | 256 nM | 12.7 nM | 14.8 nM | 38.1 nM | > 10000 nM
5 | Cc1cc(=O)oc2c(C)c(OCCCCN3CCC(c4noc5cc(F)ccc45)CC3)ccc12 | 13.6 nM | 68.9 nM | 12.9 nM | 5.3 nM | 21.3 nM | 121.2 nM
6 | COc1ccccc1N1CCN(CCCCOc2ccc3c(C)cc(=O)oc3c2)CC1 | 4.8 nM | 1000 nM | 0.012 nM | 1.4 nM | > 10000 nM | 6.1 nM

Reference: ChEMBL document CHEMBL2385071, “Synthesis and biological investigation of coumarin piperazine (piperidine) derivatives as potential multireceptor atypical antipsychotics” (J Med Chem, 2013)
